The values that follow come from BindingDB's records for doi:10.1016/j.bmc.2010.11.049 (Bryn Mawr College, 2011).

Structures are written as SMILES. A value given as a limit tells only on which side of the number the result lay.

This experiment in a line: Inhibition of HIV1 YU2 gp120 binding to CD4 expressing Cf2Th-CD4/CCR5 cells assessed as inhibition of viral infection after 48 hrs.
Regarding `CNC(=O)c1ccc(CNC(=O)C(=O)Nc2ccc(Cl)c(F)c2)cc1` [N1-(4-chloro-3-fluorophenyl)-N2-(4-(methylcarbamoyl)benzyl)oxalamide], the half-inhibitory concentration (IC50) (in general, the midpoint of a concentration-inhibition curve) is more than 100 µM.
Under `CC1(C)CC(NC(=O)C(=O)NCCc2ccc(Cl)cc2)CC(C)(C)N1` [4-(2-(4-chlorophenethylamino)-2-oxoacetamido)-2,2,6,6-tetramethylpiperidinium] stands more than 100 µM; under `CCOc1cc(Cl)ccc1NC(=O)C(=O)NC1CC(C)(C)NC(C)(C)C1` [N1-(4-chloro-2-ethoxyphenyl)-N2-(2,2,6,6-tetramethylpiperidin-4-yl)oxalamide], more than 100 µM.
Take `CC(C)c1cccc(NC(=O)C(=O)NC2CC(C)(C)NC(C)(C)C2)c1` [N1-(3-isopropylphenyl)-N2-(2,2,6,6-tetramethylpiperidin-4-yl)oxalamide]: the IC50 is more than 100 µM.
Under `CC(NC(=O)C(=O)Nc1ccc(Cl)c(F)c1)c1ccc2c(c1)NC(=O)CO2` (stereo unspecified) [N1-(4-chloro-3-fluorophenyl)-N2-(1-(3-oxo-3,4-dihydro-2H-benzo[b][1,4]oxazin-6-yl)ethyl)oxalamide] stands more than 100 µM; under `C[C@H]1CCCN(CCC(=O)Nc2ccc(Cl)cc2)C1` [(3S)-1-(3-(4-chlorophenylamino)-3-oxopropyl)-3-methylpiperidinium], more than 100 µM; under `CC1(C)C2CCC1(C)C(NC(=O)C(=O)Nc1ccc(Cl)c(F)c1)C2` (stereo unspecified) [N1-(4-chloro-3-fluorophenyl)-N2-(1,7,7-trimethylbicyclo[2.2.1]heptan-2-yl)oxalamide], more than 100 µM.
As for `NC(=O)C1CCN(CCC(=O)Nc2ccc(Br)cc2)CC1` [cis-1-(3-(4-bromophenylamino)-3-oxopropyl)-4-carbamoylpiperidinium], the concentration for half-maximal inhibition (IC50) was more than 100 µM.
On to `Cc1cc(SCC(=O)Nc2ccc(Cl)cc2)[nH]c(=O)n1` [N-(4-chlorophenyl)-2-(6-methyl-2-oxo-1,2-dihydropyrimidin-4-ylthio)acetamide], for which the IC50 was more than 100 µM.
For `Cc1cccc(-c2cc(C(=O)Nc3ccc(Cl)cc3)[nH]n2)c1O` [N-(4-chlorophenyl)-5-(2-hydroxy-3-methylphenyl)-1H-pyrazole-3-carboxamide], the IC50 is more than 100 µM.
For the molecule `O=C(NCC1NCCc2ccccc21)C(=O)Nc1ccc(Cl)c(F)c1` (stereo unspecified) [N1-(4-chloro-3-fluorophenyl)-N2-((1,2,3,4-tetrahydroisoquinolin-1-yl)methyl)oxalamide], the IC50 amounted to 50.4 µM.
Under `CC1(C)CC(NC(=O)C(=O)Nc2ccc(Cl)cc2F)CC(C)(C)N1` [N1-(4-chloro-2-fluorophenyl)-N2-(2,2,6,6-tetramethylpiperidin-4-yl)oxalamide] stands more than 100 µM; under `CC1(C)CC(NC(=O)C(=O)Nc2ccc(-n3cc(CCCCCO)nn3)cc2)CC(C)(C)N1` [N1-(4-(4-(5-hydroxypentyl)-1H-1,2,3-triazol-1-yl)phenyl)-N2-(2,2,6,6-tetramethylpiperidin-4-yl)oxalamide], more than 100 µM; under `CC1(C)CC(NC(=O)C(=O)Nc2ccc(Cl)c(OCc3ccccc3)c2)CC(C)(C)N1` [N1-(3-(benzyloxy)-4-chlorophenyl)-N2-(2,2,6,6-tetramethylpiperidin-4-yl)oxalamide], more than 100 µM.
On to `CC1Sc2cc(C(=O)NC3CC(C)(C)NC(C)(C)C3)ccc2NC1=O` (stereo unspecified) [2,2,6,6-tetramethyl-4-(2-methyl-3-oxo-3,4-dihydro-2H-benzo[b][1,4]thiazine-7-carboxamido)piperidinium], for which the IC50 was more than 100 µM.
Consider `O=C(Nc1ccc(Cl)cc1)Nc1ncnc2nc[nH]c12` [1-(4-chlorophenyl)-3-(9H-purin-6-yl)urea], for which the IC50 was more than 100 µM.
As to `CN1CCC(CNC(=O)C(=O)Nc2ccc(Cl)c(F)c2)(N(C)C)CC1` [N1-(4-chloro-3-fluorophenyl)-N2-((4-(dimethylamino)-1-methylpiperidin-4-yl)methyl)oxalamide], the IC50 was more than 100 µM.
Under `CC(C)N1CCCCC1CCNC(=O)C(=O)Nc1ccc(Cl)c(F)c1` (stereo unspecified) [N1-(4-chloro-3-fluorophenyl)-N2-(2-(1-isopropylpiperidin-2-yl)ethyl)oxalamide] stands 27 µM; under `CN1CCC(NC(=O)Nc2ccc(Cl)cc2Cl)CC1` [4-(3-(2,4-dichlorophenyl)ureido)-1-methylpiperidinium], more than 100 µM.
Under `CN1CCN(C(CNC(=O)C(=O)Nc2ccc(Cl)c(F)c2)c2cccs2)CC1` (stereo unspecified) [N1-(4-chloro-3-fluorophenyl)-N2-(2-(4-methylpiperazin-1-yl)-2-(thiophen-2-yl)ethyl)oxalamide] stands more than 100 µM.
Consider `CC1(C)CC(=O)c2cc(C(=O)Nc3ccc(Cl)cc3)c(=O)[nH]c2C1` [N-(4-chlorophenyl)-7,7-dimethyl-2,5-dioxo-1,2,5,6,7,8-hexahydroquinoline-3-carboxamide], for which the IC50 is more than 100 µM.
`CN1C(C)(C)CC(NC(=O)C(=O)Nc2ccc(Cl)c(F)c2)CC1(C)C` [N1-(4-chloro-3-fluorophenyl)-N2-(1,2,2,6,6-pentamethylpiperidin-4-yl)oxalamide]: the concentration for half-maximal inhibition (IC50) is 65.8 µM.
On to `CC1(C)CC(NC(=O)C(=O)Nc2ccc(-n3cc(-c4ccccc4)nn3)cc2)CC(C)(C)N1` [N1-(4-(4-phenyl-1H-1,2,3-triazol-1-yl)phenyl)-N2-(2,2,6,6-tetramethylpiperidin-4-yl)oxalamide], for which the IC50 is more than 100 µM.
As for `CC(C)c1ccccc1NC(=O)C(=O)NC1CC(C)(C)NC(C)(C)C1` [N1-(2-isopropylphenyl)-N2-(2,2,6,6-tetramethylpiperidin-4-yl)oxalamide], the IC50 was more than 100 µM.
Take `CN(C)C(CNC(=O)C(=O)Nc1ccc(Cl)c(F)c1)c1ccco1` (stereo unspecified) [N1-(4-chloro-3-fluorophenyl)-N2-(2-(dimethylamino)-2-(furan-2-yl)ethyl)oxalamide]: the IC50 is more than 100 µM.
As to `O=C(Nc1ccc(Cl)cc1)C(=O)c1c[nH]c2ccccc12` [N-(4-chlorophenyl)-2-(1H-indol-3-yl)-2-oxoacetamide], the IC50 is more than 100 µM.
Consider `CC(C)COc1cc(Cl)ccc1NC(=O)C(=O)NC1CC(C)(C)NC(C)(C)C1` [N1-(4-chloro-2-isobutoxyphenyl)-N2-(2,2,6,6-tetramethylpiperidin-4-yl)oxalamide], for which the 50% inhibitory concentration (IC50) is more than 100 µM.
Under `Cc1nn(C)cc1CN(C)CC(=O)Nc1ccc(Br)cc1` [N-(4-bromophenyl)-2-(((1,3-dimethyl-1H-pyrazol-4-yl)methyl)(methyl)amino)acetamide] stands more than 100 µM; under `O=C(Nc1ccc(Cl)c(F)c1)C(=O)NC1CCNC2(CCC2)C1` (stereo unspecified) [N1-(4-chloro-3-fluorophenyl)-N2-(5-azaspiro[3.5]nonan-8-yl)oxalamide], 38.5 µM.
Under `O=C(NCCc1cnc[nH]1)Nc1ccc(Cl)c(Cl)c1` [1-(2-(1H-imidazol-5-yl)ethyl)-3-(3,4-dichlorophenyl)urea] stands more than 100 µM.
Regarding `CCc1n[nH]c(NC(=O)C(=O)Nc2ccc(Cl)c(F)c2)c1CC` [N1-(4-chloro-3-fluorophenyl)-N2-(3,4-diethyl-1H-pyrazol-5-yl)oxalamide], the IC50 was more than 100 µM.
As to `Cn1ccnc1C(O)(CCNC(=O)C(=O)Nc1ccc(Cl)c(F)c1)C(F)(F)F` (stereo unspecified) [N1-(4-chloro-3-fluorophenyl)-N2-(4,4,4-trifluoro-3-hydroxy-3-(1-methyl-1H-imidazol-2-yl)butyl)oxalamide], the IC50 was more than 100 µM.
Under `O=C(NCC1OCCc2ccccc21)C(=O)Nc1ccc(Br)cc1` (stereo unspecified) [N1-(4-bromophenyl)-N2-(isochroman-1-ylmethyl)oxalamide] stands more than 100 µM; under `CN1CCCN(C(=O)COc2ccc(Cl)cc2)CC1` [4-(2-(4-chlorophenoxy)acetyl)-1-methyl-1,4-diazepan-1-ium], more than 100 µM.
Take `CC1(C)CC(NC(=O)C(=O)Nc2ccc(Cl)cc2C(F)(F)F)CC(C)(C)N1` [N1-(4-chloro-2-(trifluoromethyl)phenyl)-N2-(2,2,6,6-tetramethylpiperidin-4-yl)oxalamide]: the IC50 was more than 100 µM.
`Nc1ccc(C(=O)CC(=O)Nc2ccc(Cl)cc2)cc1` [3-(4-aminophenyl)-N-(4-chlorophenyl)-3-oxopropanamide]: the IC50 was more than 100 µM.
Under `CN(C(=O)C(=O)Nc1ccc(Cl)c(F)c1)C1CC(C)(C)NC(C)(C)C1` [N1-(4-chloro-3-fluorophenyl)-N2-methyl-N2-(2,2,6,6-tetramethylpiperidin-4-yl)oxalamide] stands more than 100 µM.
Under `CC1(C)CC(NC(=O)C(=O)Nc2ccc3cc[nH]c3c2)CC(C)(C)N1` [4-(2-(1H-indol-6-ylamino)-2-oxoacetamido)-2,2,6,6-tetramethylpiperidinium] stands more than 100 µM; under `CCCN1CCC(NC(=O)C(=O)Nc2ccc(Cl)c(F)c2)CC1` [N1-(4-chloro-3-fluorophenyl)-N2-(1-propylpiperidin-4-yl)oxalamide], more than 100 µM; under `O=C(NCC1CCCN(CCO)C1)C(=O)Nc1ccc(Cl)c(F)c1` (stereo unspecified) [N1-(4-chloro-3-fluorophenyl)-N2-((1-(2-hydroxyethyl)piperidin-3-yl)methyl)oxalamide], 27.6 µM.
On to `Cc1ccc(N(C)C)cc1NC(=O)COc1ccc(Cl)cc1` [2-(4-chlorophenoxy)-N-(5-(dimethylamino)-2-methylphenyl)acetamide], for which the IC50 was more than 100 µM.
Under `CC(NC(=O)C(=O)Nc1ccc(Cl)c(F)c1)c1ccc(S(N)(=O)=O)cc1` (stereo unspecified) [N1-(4-chloro-3-fluorophenyl)-N2-(1-(4-sulfamoylphenyl)ethyl)oxalamide] stands more than 100 µM; under `Cc1n[nH]c(C)c1CNC(=O)C(=O)Nc1ccc(Cl)c(F)c1` [N1-(4-chloro-3-fluorophenyl)-N2-((3,5-dimethyl-1H-pyrazol-4-yl)methyl)oxalamide], 64.5 µM; under `O=C(Nc1ccc(Cl)cc1)c1cc2c([nH]c1=O)CCCC2` [N-(4-chlorophenyl)-2-oxo-1,2,5,6,7,8-hexahydroquinoline-3-carboxamide], more than 100 µM.
Under `CC1(C)CC(NC(=O)C(=O)Nc2ccc(N=[N+]=[N-])cc2)CC(C)(C)N1` [N1-(4-azidophenyl)-N2-(2,2,6,6-tetramethylpiperidin-4-yl)oxalamide] stands more than 100 µM.
Under `CNS(=O)(=O)Cc1ccc(CNC(=O)C(=O)Nc2ccc(Cl)c(F)c2)cc1` [N1-(4-chloro-3-fluorophenyl)-N2-(4-(N-methylsulfamoylmethyl)benzyl)oxalamide] stands more than 100 µM.
